Source: ChEMBL document CHEMBL1126996, “Structure-activity relationships of 6-substituted benzopyran-4-carbothioamide potassium channel openers” (Bioorg Med Chem Lett, 1993)

Assays:
Rattus norvegicus [1] = species on record: Rattus norvegicus; assay: Percent of intrinsic activity for vasorelaxant effect; assay type: functional
Rattus norvegicus [2] = species on record: Rattus norvegicus; assay: Negative logarithm of the molar concentration required to relax rat aorta precontracted with 30 mM KCl by 50% of IA; assay type: functional

EC50 (Rattus norvegicus [2]) [µM] | SMILES | IA (Rattus norvegicus [1]) [%]
0.0372 | C/N=C(/S)C1=CC(C)(C)Oc2ccc(Cl)cc21 | 73.1
0.0126 | C/N=C(/S)C1=CC(C)(C)Oc2ccc(C(F)(F)C(F)(F)F)cc21 | 55.4
0.00135 | C/N=C(/S)C1=CC(C)(C)Oc2ccc([N+](=O)[O-])cc21 | 63.5
0.457 | C/N=C(/S)C1=CC(C)(C)Oc2ccc(S(C)(=O)=O)cc21 | 69.8
0.324 | CCc1ccc2c(c1)C(/C(S)=N\C)=CC(C)(C)O2 | 78.7
4.27 | C/N=C(/S)C1=CC(C)(C)Oc2ccccc21 | 89.3
0.00407 | C/N=C(/S)C1=CC(C)(C)Oc2ccc(OC(F)(F)F)cc21 | 76.1
0.00933 | C/N=C(/S)C1=CC(C)(C)Oc2ccc(Br)cc21 | 67.5
0.0245 | C/N=C(/S)C1=CC(C)(C)Oc2ccc(C#N)cc21 | 89
0.00204 | C/N=C(/S)C1=CC(C)(C)Oc2ccc(C(F)(F)F)cc21 | 73
0.0191 | C/N=C(/S)C1=CC(C)(C)Oc2ccc(S(=O)(=O)c3ccccc3)cc21 | 73.7
0.0955 | C/N=C(/S)C1=CC(C)(C)Oc2ccc(OC(C)=O)cc21 | 76.1
0.417 | CNC(=S)C1=CC(C)(C)Oc2ccc(OC)cc21 | 61.5
0.17 | CC1(C)Oc2ccc(C#N)cc2[C@@H](N2CCCC2=O)[C@@H]1O [CROMAKALIM] | 74.7
